PubChem BioAssay AID2060492 (Molecular Pharmacology Branch, DTP, NCI, 2025)

System: 695427-040-R-J1-PDC complex spheroids, viability percent T/C
Assay: Anticancer human tumor 695427-040-R-J1-PDC patient-derived colon adenocarcinoma cell line growth inhibition [GQUAD]
Conditions: for IC50: curve of first compound; for viability, T/C: stronger effect = lower value
How it was run: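 Viability of tumor cells grown as complex spheroids with endothelial and stromal cells, exposed to drug combinations. Top concentration at or near clinical Cmax (else 10 microM), diluted in half-log increments.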

[1] = second compound 0.0316 µM, first compound 0.0316 µM
[2] = second compound 0.0316 µM, first compound 0.316 µM
[3] = second compound 0.1 µM, first compound 0.0316 µM
[4] = second compound 0.1 µM, first compound 0.316 µM
[5] = second compound 0.316 µM, first compound 0.0316 µM
[6] = second compound 0.316 µM, first compound 0.316 µM
[7] = second compound 1 µM, first compound 0.0316 µM
[8] = second compound 1 µM, first compound 0.316 µM
[9] = second compound 3.16 µM, first compound 0.0316 µM
[10] = second compound 3.16 µM, first compound 0.316 µM
[11] = second compound 10 µM, first compound 0.0316 µM
[12] = second compound 10 µM, first compound 0.316 µM
[13] = second compound 0.0316 µM, first compound 0.1 µM
[14] = second compound 0.0316 µM, first compound 1 µM
[15] = second compound 0.0316 µM, first compound 3.16 µM
[16] = second compound 0.0316 µM, first compound 10 µM
[17] = second compound 0.1 µM, first compound 0.1 µM
[18] = second compound 0.1 µM, first compound 1 µM
[19] = second compound 0.1 µM, first compound 3.16 µM
[20] = second compound 0.1 µM, first compound 10 µM
[21] = second compound 0.316 µM, first compound 0.1 µM
[22] = second compound 0.316 µM, first compound 1 µM
[23] = second compound 0.316 µM, first compound 3.16 µM
[24] = second compound 0.316 µM, first compound 10 µM
[25] = second compound 1 µM, first compound 0.1 µM
[26] = second compound 1 µM, first compound 1 µM
[27] = second compound 1 µM, first compound 3.16 µM
[28] = second compound 1 µM, first compound 10 µM
[29] = second compound 3.16 µM, first compound 0.1 µM
[30] = second compound 3.16 µM, first compound 1 µM
[31] = second compound 3.16 µM, first compound 3.16 µM
[32] = second compound 3.16 µM, first compound 10 µM
[33] = second compound 10 µM, first compound 0.1 µM
[34] = second compound 10 µM, first compound 1 µM
[35] = second compound 10 µM, first compound 3.16 µM
[36] = second compound 10 µM, first compound 10 µM
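Also: spheroids exposed to compounds for seven days before readout.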

`Cc1[nH]c2ccccc2c1CCNCc1ccc(/C=C/C(=O)NO)cc1` + Cc1[nH]c2ccc(F)cc2c1-c1nc2c3cccnc3c3ncccc3c2[nH]1 showed an IC50 (second compound 0.0316 µM) of over 0.316 µM, an IC50 (second compound 0.1 µM) of over 0.316 µM and an IC50 (second compound 0.316 µM) of over 0.316 µM. For the same compound, the IC50 (second compound 1 µM) was over 0.316 µM, the IC50 (second compound 3.16 µM) was over 0.316 µM and the IC50 (second compound 10 µM) was over 0.316 µM. For the same compound, the viability, T/C (second compound 0.0316 µM, first compound 0.000999 µM) was 109%, the viability, T/C (second compound 0.0316 µM, first compound 0.00316 µM) was 90% and the viability, T/C (second compound 0.0316 µM, first compound 0.00999 µM) was 101%. It also gave a viability, T/C [1] of 102%, a viability, T/C (second compound 0.0316 µM, first compound 0.0999 µM) of 106% and a viability, T/C [2] of 94.5%. The viability, T/C (second compound 0.1 µM, first compound 0.000999 µM) was 115%, the viability, T/C (second compound 0.1 µM, first compound 0.00316 µM) was 94.5% and the viability, T/C (second compound 0.1 µM, first compound 0.00999 µM) was 91.1%. For the same compound, the viability, T/C [3] was 93.4%, the viability, T/C (second compound 0.1 µM, first compound 0.0999 µM) was 95.7% and the viability, T/C [4] was 88.6%. It also gave a viability, T/C (second compound 0.316 µM, first compound 0.000999 µM) of 98.8%, a viability, T/C (second compound 0.316 µM, first compound 0.00316 µM) of 84.8% and a viability, T/C (second compound 0.316 µM, first compound 0.00999 µM) of 94.2%. It also gave a viability, T/C [5] of 104%, a viability, T/C (second compound 0.316 µM, first compound 0.0999 µM) of 100% and a viability, T/C [6] of 86.7%. The viability, T/C (second compound 1 µM, first compound 0.000999 µM) was 94.3%, the viability, T/C (second compound 1 µM, first compound 0.00316 µM) was 88.6% and the viability, T/C (second compound 1 µM, first compound 0.00999 µM) was 96.8%. For the same compound, the viability, T/C [7] was 93.5%, the viability, T/C (second compound 1 µM, first compound 0.0999 µM) was 98.9% and the viability, T/C [8] was 90.8%. For the same compound, the viability, T/C (second compound 3.16 µM, first compound 0.000999 µM) was 75.2%, the viability, T/C (second compound 3.16 µM, first compound 0.00316 µM) was 78.3% and the viability, T/C (second compound 3.16 µM, first compound 0.00999 µM) was 86%. It also gave a viability, T/C [9] of 74.5%, a viability, T/C (second compound 3.16 µM, first compound 0.0999 µM) of 78% and a viability, T/C [10] of 67.3%. For the same compound, the viability, T/C (second compound 10 µM, first compound 0.000999 µM) was 74.8%, the viability, T/C (second compound 10 µM, first compound 0.00316 µM) was 77.6% and the viability, T/C (second compound 10 µM, first compound 0.00999 µM) was 71.8%. For the same compound, the viability, T/C [11] was 75.9%, the viability, T/C (second compound 10 µM, first compound 0.0999 µM) was 74.8% and the viability, T/C [12] was 63.4%.

`CC1COCCN1c1cc(-c2ccnn2C)c2ccnc(-c3ccn[nH]3)c2n1` (stereo not drawn) + Cc1cnc(CNC(=O)c2c(=O)c3ccc(N4CCCN(C)CC4)nc3n3c2sc2ccccc23)cn1 was tested, and the IC50 (second compound 0.0316 µM) was 0.12 µM, the IC50 (second compound 0.1 µM) was 0.0684 µM and the IC50 (second compound 0.316 µM) was 0.0792 µM. The IC50 (second compound 1 µM) was 0.0519 µM, the IC50 (second compound 3.16 µM) was under 0.0316 µM and the IC50 (second compound 10 µM) was under 0.0316 µM. The viability, T/C [1] was 62.7%, the viability, T/C [13] was 52% and the viability, T/C [2] was 38.8%. For the same compound, the viability, T/C [14] was 29.9%, the viability, T/C [15] was 28.1% and the viability, T/C [16] was 26.6%. It also gave a viability, T/C [3] of 59.9%, a viability, T/C [17] of 44.5% and a viability, T/C [4] of 36.2%. The viability, T/C [18] was 25.6%, the viability, T/C [19] was 29.4% and the viability, T/C [20] was 29.2%. For the same compound, the viability, T/C [5] was 69.3%, the viability, T/C [21] was 43.2% and the viability, T/C [6] was 37.3%. The viability, T/C [22] was 28%, the viability, T/C [23] was 30% and the viability, T/C [24] was 24.9%. For the same compound, the viability, T/C [7] was 58.8%, the viability, T/C [25] was 35.6% and the viability, T/C [8] was 34.1%. It also gave a viability, T/C [26] of 22.7%, a viability, T/C [27] of 27.7% and a viability, T/C [28] of 14.8%. The viability, T/C [9] was 21.8%, the viability, T/C [29] was 31.4% and the viability, T/C [10] was 28.9%. The viability, T/C [30] was 20.6%, the viability, T/C [31] was 20.5% and the viability, T/C [32] was 11.5%. For the same compound, the viability, T/C [11] was 24.9%, the viability, T/C [33] was 19.6% and the viability, T/C [12] was 24.8%. For the same compound, the viability, T/C [34] was 16.6%, the viability, T/C [35] was 13.6% and the viability, T/C [36] was 1.36%.

Work on `CC1COCCN1c1cc(C2(S(C)(=N)=O)CC2)nc(-c2ccnc3[nH]ccc23)n1` (stereo not drawn) + Cc1cnc(CNC(=O)c2c(=O)c3ccc(N4CCCN(C)CC4)nc3n3c2sc2ccccc23)cn1 yielded an IC50 (second compound 0.0316 µM) of over 10 µM, an IC50 (second compound 0.1 µM) of over 10 µM and an IC50 (second compound 0.316 µM) of over 10 µM. It also gave an IC50 (second compound 1 µM) of over 10 µM, an IC50 (second compound 3.16 µM) of under 0.0316 µM and an IC50 (second compound 10 µM) of under 0.0316 µM. For the same compound, the viability, T/C [1] was 95.6%, the viability, T/C [13] was 93.5% and the viability, T/C [2] was 95.3%. It also gave a viability, T/C [14] of 94.2%, a viability, T/C [15] of 74.8% and a viability, T/C [16] of 66.2%. The viability, T/C [3] was 85.2%, the viability, T/C [17] was 79.1% and the viability, T/C [4] was 89.3%. For the same compound, the viability, T/C [18] was 64.4%, the viability, T/C [19] was 74.2% and the viability, T/C [20] was 55.4%. For the same compound, the viability, T/C [5] was 76.8%, the viability, T/C [21] was 71.5% and the viability, T/C [6] was 77.5%. It also gave a viability, T/C [22] of 66.1%, a viability, T/C [23] of 77.9% and a viability, T/C [24] of 50.4%. For the same compound, the viability, T/C [7] was 51.8%, the viability, T/C [25] was 66.6% and the viability, T/C [8] was 59.7%. For the same compound, the viability, T/C [26] was 66.7%, the viability, T/C [27] was 62.7% and the viability, T/C [28] was 47.3%. For the same compound, the viability, T/C [9] was 33.4%, the viability, T/C [29] was 58.1% and the viability, T/C [10] was 53.2%. For the same compound, the viability, T/C [30] was 49.4%, the viability, T/C [31] was 51.5% and the viability, T/C [32] was 36.9%. The viability, T/C [11] was 33.8%, the viability, T/C [33] was 36.5% and the viability, T/C [12] was 41.7%. It also gave a viability, T/C [34] of 39.1%, a viability, T/C [35] of 44% and a viability, T/C [36] of 25.5%.

With `COc1ccc([C@@H](O)c2cc(-c3ncnc4cc(N5CCOCC5)ccc34)c(F)cc2Cl)nn1` + Cc1cnc(CNC(=O)c2c(=O)c3ccc(N4CCCN(C)CC4)nc3n3c2sc2ccccc23)cn1 the IC50 (second compound 0.0316 µM) was 2.95 µM, the IC50 (second compound 0.1 µM) was 3.68 µM and the IC50 (second compound 0.316 µM) was 2.08 µM. The IC50 (second compound 1 µM) was 2.33 µM, the IC50 (second compound 3.16 µM) was under 0.0316 µM and the IC50 (second compound 10 µM) was under 0.0316 µM. The viability, T/C [1] was 93.2%, the viability, T/C [13] was 101% and the viability, T/C [2] was 85.6%. It also gave a viability, T/C [14] of 64.3%, a viability, T/C [15] of 53.1% and a viability, T/C [16] of 31.2%. It also gave a viability, T/C [3] of 91.5%, a viability, T/C [17] of 103% and a viability, T/C [4] of 80.5%. For the same compound, the viability, T/C [18] was 66.5%, the viability, T/C [19] was 55.7% and the viability, T/C [20] was 36.3%. It also gave a viability, T/C [5] of 72.6%, a viability, T/C [21] of 79.3% and a viability, T/C [6] of 69.8%. It also gave a viability, T/C [22] of 56.1%, a viability, T/C [23] of 47.5% and a viability, T/C [24] of 35.2%. For the same compound, the viability, T/C [7] was 58%, the viability, T/C [25] was 69.4% and the viability, T/C [8] was 60.9%. It also gave a viability, T/C [26] of 52.2%, a viability, T/C [27] of 49.6% and a viability, T/C [28] of 32%. It also gave a viability, T/C [9] of 41.5%, a viability, T/C [29] of 46.3% and a viability, T/C [10] of 42.7%. It also gave a viability, T/C [30] of 46%, a viability, T/C [31] of 39.5% and a viability, T/C [32] of 21.9%. For the same compound, the viability, T/C [11] was 36.8%, the viability, T/C [33] was 39.6% and the viability, T/C [12] was 36.3%. For the same compound, the viability, T/C [34] was 33.6%, the viability, T/C [35] was 20.2% and the viability, T/C [36] was 5.79%.
